# From article PMC4725628 (International Journal of Nanomedicine, 2016)
# Experiments:
# [1] = Bidirectional transport across Caco-2 cell monolayers; assay type: in vitro ADME; conditions: human
# Caco-2 cells [2] = experiment: Uptake into Caco-2 cell monolayers; assay type: in vitro ADME, human
# Caco-2 cell monolayers = experiment: TEER of Caco-2 cell monolayers; assay type: cell-based, human; conditions: Caco-2 monolayers; HM formulations 40 μg/mL, TMC 0.1% w/w
# [3] = mice, 60 mg/kg, within 1 hour
# MTT cytotoxicity assay = assay type: cell-based, human; conditions: human, Caco-2 cells
# Caco-2 cells [4] = experiment: MTT cytotoxicity assay; assay type: cell-based, human; conditions: 10–200 μg/mL
# Caco-2 cell homogenates = experiment: Degradation in Caco-2 cell homogenates; assay type: in vitro ADME, human; conditions: 37°C, within 120 minutes
# [5] = In vivo pharmacokinetic study in rats; parameters: species or system Sprague Dawley rats
# [6] = Sprague Dawley, rat, plasma, po, 60 mg/kg
compound,measurement,setting,value
"COc1ccc2c(c1)[nH]c1c(C)nccc12 [HM, Harmine]",Papp at 2 h,[1],> 1 ×10⁻⁶ cm/s
same,"Papp at 2 h, 40 μg/mL",[1],5.11 ± 0.69 ×10⁻⁶ cm/s
same,Effect of endocytosis inhibitor CPZ on uptake,Caco-2 cells [2],did not affect
same,Effect of energy inhibitor NaN3 on uptake,Caco-2 cells [2],did not affect
same,Effect of p-gp inhibitor CyA on uptake,Caco-2 cells [2],did not affect
same,Reduction of TEER,Caco-2 cell monolayers,lower than 15%
same,Decrease of retention amount in the stomach,[3],about 10%
same,"viability at 24 h, 200 μg/mL",MTT cytotoxicity assay,> 90%
same,Toxicity to Caco-2 cells,Caco-2 cells [4],almost no toxicity
same,HM degraded,Caco-2 cell homogenates,more than 60%
same,AUC,"[5]; Sprague Dawley, rat, plasma, iv, 20 mg/kg",12900 ± 1250 ng·h/mL
same,AUC,[5]; [6],9760 ± 2340 ng·h/mL
same,Cmax,[5]; [6],3110 ± 320 ng/mL
same,BA (oral bioavailability),"[5]; rats, IG 60 mg/kg versus HM IV 20 mg/kg",25.25±6.05%
